Experiments:
[1] = target: 5-hydroxytryptamine receptor 2B (Homo sapiens, UniProt P41595); type: functional, cell-based
[2] = target: T1, 5-hydroxytryptamine receptor 2C (Homo sapiens, UniProt P28335)
T1 sequence (P28335 whole entry): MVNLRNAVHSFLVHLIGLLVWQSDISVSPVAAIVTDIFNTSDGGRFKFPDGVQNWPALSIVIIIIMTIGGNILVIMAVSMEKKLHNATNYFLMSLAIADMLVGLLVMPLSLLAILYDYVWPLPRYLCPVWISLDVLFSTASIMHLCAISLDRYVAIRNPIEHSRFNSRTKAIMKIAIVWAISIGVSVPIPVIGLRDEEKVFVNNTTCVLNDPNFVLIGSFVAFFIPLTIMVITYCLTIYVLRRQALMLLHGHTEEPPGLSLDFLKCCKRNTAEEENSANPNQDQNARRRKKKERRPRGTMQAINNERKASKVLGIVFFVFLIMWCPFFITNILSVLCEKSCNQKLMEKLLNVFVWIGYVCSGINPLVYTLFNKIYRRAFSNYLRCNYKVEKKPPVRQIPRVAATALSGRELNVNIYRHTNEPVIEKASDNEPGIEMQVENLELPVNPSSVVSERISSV

[3] = target: T2, Muscarinic acetylcholine receptor M2 (Homo sapiens, UniProt P08172); type: functional, cell-based
T2 sequence (P08172 whole entry): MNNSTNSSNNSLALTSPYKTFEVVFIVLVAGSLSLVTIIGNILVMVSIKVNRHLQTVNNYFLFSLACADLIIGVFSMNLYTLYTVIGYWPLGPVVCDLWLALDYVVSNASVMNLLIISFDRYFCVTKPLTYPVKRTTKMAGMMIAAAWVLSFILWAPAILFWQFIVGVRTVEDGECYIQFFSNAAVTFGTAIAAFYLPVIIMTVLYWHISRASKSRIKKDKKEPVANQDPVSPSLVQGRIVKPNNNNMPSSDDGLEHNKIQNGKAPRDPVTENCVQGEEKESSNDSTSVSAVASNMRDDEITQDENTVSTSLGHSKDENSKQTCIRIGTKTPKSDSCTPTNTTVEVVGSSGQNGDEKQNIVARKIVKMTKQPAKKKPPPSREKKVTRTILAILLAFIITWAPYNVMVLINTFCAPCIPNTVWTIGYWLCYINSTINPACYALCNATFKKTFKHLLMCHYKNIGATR

[4] = target: T3, Prostaglandin G/H synthase 1 (Rattus norvegicus, UniProt Q63921); type: functional
T3 sequence (Q63921 whole entry): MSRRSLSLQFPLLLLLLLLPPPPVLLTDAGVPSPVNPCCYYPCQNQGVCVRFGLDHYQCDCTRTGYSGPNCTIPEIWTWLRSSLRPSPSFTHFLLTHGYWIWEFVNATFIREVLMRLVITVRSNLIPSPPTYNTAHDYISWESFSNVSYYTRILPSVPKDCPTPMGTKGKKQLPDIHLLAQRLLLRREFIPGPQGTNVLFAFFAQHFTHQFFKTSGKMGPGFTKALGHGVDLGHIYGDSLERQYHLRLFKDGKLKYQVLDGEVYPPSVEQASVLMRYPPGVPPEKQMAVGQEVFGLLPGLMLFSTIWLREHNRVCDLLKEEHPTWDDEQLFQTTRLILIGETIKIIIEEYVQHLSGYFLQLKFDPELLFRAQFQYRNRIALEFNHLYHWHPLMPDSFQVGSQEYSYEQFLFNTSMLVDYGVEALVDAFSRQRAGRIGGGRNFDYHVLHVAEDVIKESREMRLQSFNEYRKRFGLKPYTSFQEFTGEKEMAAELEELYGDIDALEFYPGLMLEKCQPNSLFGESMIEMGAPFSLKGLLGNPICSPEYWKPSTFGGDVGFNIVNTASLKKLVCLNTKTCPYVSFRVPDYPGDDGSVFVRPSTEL

B2 bradykinin receptor = target: T4, B2 bradykinin receptor (Homo sapiens, UniProt P30411)
T4 sequence (P30411 whole entry): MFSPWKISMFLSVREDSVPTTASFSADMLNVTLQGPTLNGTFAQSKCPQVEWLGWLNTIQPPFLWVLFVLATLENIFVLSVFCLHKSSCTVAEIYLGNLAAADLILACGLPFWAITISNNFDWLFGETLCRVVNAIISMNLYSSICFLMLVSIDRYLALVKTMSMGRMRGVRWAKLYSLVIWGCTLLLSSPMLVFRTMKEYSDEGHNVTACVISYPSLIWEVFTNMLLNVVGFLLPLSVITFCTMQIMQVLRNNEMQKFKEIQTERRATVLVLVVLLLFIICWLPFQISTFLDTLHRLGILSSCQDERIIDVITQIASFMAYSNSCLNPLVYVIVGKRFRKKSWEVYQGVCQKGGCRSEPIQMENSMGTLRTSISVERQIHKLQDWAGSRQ

[5] = target: T5, Alpha-2A adrenergic receptor (Homo sapiens, UniProt P08913); type: functional, cell-based
T5 sequence (P08913 whole entry): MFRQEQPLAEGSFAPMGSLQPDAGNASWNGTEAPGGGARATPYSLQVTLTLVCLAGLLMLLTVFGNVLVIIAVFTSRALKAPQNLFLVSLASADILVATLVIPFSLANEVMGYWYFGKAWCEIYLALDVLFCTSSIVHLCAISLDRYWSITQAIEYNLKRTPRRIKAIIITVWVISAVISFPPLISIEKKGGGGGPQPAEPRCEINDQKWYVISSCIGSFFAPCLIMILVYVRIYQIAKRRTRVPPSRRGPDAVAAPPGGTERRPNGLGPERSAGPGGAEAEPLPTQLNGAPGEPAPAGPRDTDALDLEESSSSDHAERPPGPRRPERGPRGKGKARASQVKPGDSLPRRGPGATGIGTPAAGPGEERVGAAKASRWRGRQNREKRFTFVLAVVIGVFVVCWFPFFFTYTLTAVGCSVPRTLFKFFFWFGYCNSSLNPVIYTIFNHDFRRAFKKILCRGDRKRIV

[6] = target: 3',5'-cyclic-AMP phosphodiesterase 4D (Homo sapiens, UniProt Q08499); type: functional
3',5'-cyclic-AMP phosphodiesterase 4D, sequence (Q08499 whole entry): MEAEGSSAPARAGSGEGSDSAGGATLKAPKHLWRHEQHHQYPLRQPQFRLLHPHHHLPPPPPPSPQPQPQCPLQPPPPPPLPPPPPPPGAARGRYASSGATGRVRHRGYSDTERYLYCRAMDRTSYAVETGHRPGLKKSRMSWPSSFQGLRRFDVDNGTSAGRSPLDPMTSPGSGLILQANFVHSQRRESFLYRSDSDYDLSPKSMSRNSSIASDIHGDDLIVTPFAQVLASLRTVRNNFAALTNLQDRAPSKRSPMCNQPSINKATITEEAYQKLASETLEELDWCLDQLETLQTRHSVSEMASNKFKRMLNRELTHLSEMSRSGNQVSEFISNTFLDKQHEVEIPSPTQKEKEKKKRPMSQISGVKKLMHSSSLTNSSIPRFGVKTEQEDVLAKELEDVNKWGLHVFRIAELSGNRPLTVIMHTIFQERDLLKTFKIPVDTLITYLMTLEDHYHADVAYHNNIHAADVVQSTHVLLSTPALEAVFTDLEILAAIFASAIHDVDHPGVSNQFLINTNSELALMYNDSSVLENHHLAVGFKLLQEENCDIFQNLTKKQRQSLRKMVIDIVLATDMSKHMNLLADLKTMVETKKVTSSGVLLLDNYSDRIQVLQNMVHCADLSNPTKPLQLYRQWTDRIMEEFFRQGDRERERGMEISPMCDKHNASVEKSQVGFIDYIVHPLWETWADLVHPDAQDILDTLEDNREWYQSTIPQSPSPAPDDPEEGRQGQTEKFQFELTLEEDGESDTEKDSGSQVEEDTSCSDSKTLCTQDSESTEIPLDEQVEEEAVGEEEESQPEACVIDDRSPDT

[7] = target: Kappa-type opioid receptor (Homo sapiens, UniProt P41145)
Kappa-type opioid receptor, sequence (P41145 whole entry): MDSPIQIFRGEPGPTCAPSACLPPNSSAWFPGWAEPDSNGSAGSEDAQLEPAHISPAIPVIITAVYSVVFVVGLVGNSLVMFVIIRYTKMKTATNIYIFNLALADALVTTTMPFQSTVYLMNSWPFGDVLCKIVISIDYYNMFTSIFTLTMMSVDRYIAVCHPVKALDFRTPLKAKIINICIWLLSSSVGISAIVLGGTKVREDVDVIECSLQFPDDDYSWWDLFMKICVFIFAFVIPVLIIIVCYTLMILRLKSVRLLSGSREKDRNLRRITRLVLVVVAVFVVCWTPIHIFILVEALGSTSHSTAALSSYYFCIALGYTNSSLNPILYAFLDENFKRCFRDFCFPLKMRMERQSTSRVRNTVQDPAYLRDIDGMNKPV

Melanocortin receptor 3 = Melanocortin receptor 3 (Homo sapiens, UniProt P41968)
Melanocortin receptor 3, sequence (P41968 whole entry): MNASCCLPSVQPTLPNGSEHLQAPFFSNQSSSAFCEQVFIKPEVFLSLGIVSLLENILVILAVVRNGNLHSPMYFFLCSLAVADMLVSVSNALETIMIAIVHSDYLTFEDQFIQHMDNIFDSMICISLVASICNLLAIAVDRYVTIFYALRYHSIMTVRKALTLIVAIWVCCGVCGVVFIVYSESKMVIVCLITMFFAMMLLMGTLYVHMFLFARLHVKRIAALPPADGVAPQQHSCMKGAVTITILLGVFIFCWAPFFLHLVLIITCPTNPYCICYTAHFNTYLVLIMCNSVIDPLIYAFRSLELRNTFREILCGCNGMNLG

[8] = target: 5-hydroxytryptamine receptor 2A (Homo sapiens, UniProt P28223); type: functional, cell-based
5-hydroxytryptamine receptor 2A, sequence (P28223 whole entry): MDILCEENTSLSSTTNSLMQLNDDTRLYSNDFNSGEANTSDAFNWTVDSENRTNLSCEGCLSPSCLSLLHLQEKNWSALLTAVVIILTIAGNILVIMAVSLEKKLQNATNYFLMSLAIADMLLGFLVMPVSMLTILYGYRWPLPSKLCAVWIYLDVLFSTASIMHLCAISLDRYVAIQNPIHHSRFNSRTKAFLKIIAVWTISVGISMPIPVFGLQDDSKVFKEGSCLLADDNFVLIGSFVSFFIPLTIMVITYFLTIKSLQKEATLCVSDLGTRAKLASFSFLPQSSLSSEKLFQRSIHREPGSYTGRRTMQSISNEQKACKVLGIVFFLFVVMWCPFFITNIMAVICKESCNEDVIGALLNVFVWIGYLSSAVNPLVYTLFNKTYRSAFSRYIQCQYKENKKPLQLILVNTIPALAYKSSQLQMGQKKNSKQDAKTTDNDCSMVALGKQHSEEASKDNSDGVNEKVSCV
Note: assay procedure not described here.

5-hydroxytryptamine receptor 2B, sequence (P41595 whole entry): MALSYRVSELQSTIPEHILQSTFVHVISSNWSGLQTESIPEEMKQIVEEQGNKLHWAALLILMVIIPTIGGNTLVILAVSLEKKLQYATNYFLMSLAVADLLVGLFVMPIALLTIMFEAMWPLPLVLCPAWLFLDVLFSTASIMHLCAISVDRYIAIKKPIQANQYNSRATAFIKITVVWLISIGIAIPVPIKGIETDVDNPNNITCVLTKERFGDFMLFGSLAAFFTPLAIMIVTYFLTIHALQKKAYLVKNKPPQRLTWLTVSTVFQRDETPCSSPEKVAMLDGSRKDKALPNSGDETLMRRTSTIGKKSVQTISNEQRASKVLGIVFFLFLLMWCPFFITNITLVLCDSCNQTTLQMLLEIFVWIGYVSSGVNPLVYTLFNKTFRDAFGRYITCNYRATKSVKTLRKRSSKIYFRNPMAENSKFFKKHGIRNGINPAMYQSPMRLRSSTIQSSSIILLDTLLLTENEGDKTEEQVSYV

Row | Compound | AC50 [1] [µM] | AC50 [2] [µM] | AC50 [3] [µM] | AC50 [4] [µM] | AC50 (B2 bradykinin receptor) [µM] | AC50 [5] [µM] | AC50 [6] [µM] | AC50 [7] [µM] | AC50 (Melanocortin receptor 3) [µM] | AC50 [8] [µM]
1 | CS(=O)(=O)NC(=O)CCC/C=C\C[C@H]1C(=O)C[C@@H](O)[C@@H]1/C=C/[C@@H](O)COc1ccccc1 [SULPROSTONE] | > 30 | > 30 | > 30 | > 30 | > 30 | > 30 | > 30 | > 30 | > 30 | > 30
2 | CC1Cc2ccccc2N1NC(=O)c1ccc(Cl)c(S(N)(=O)=O)c1 (stereo unspecified) [INDAPAMIDE] | > 10 | > 30 | > 10 | > 30 | > 30 | > 10 | > 10 | > 10 | > 30 | –
3 | CCc1ccc(C(=O)C(C)CN2CCCCC2)cc1 (stereo unspecified) [EPERISONE] | > 30 | > 30 | 2.2 | > 30 | > 30 | > 30 | > 30 | > 30 | > 30 | –
4 | Oc1cc(O)c2c(c1)O[C@H](c1ccc(O)c(O)c1)[C@@H](O)C2 [CIANIDANOL] | > 10 | > 30 | > 10 | – | > 30 | > 10 | > 30 | > 10 | > 30 | > 30
5 | CC(C)CN(C[C@@H](O)[C@H](Cc1ccccc1)NC(=O)O[C@H]1CCOC1)S(=O)(=O)c1ccc(N)cc1 | > 10 | > 30 | > 10 | > 10 | > 30 | > 10 | > 30 | > 10 | > 30 | –
6 | CNCCc1ccccn1 [BETAHISTINE] | > 30 | > 30 | > 30 | > 30 | > 30 | > 30 | > 30 | > 30 | > 30 | –
7 | SITOSTEROLS | > 30 | > 30 | > 30 | – | > 30 | > 30 | > 10 | > 30 | > 30 | > 30
8 | CCCCC[C@H](O)CC[C@@H]1[C@H]2Cc3cccc(OCC(=O)O)c3C[C@H]2C[C@H]1O [TREPROSTINIL] | > 30 | – | > 30 | > 30 | > 30 | > 30 | > 30 | > 30 | > 30 | > 30
9 | CC(=O)OCC(=O)[C@@]1(O)CC[C@H]2[C@@H]3CCC4=CC(=O)CC[C@]4(C)[C@@]3(F)[C@@H](O)C[C@@]21C [FLUDROCORTISONE ACETATE] | > 30 | > 30 | > 30 | > 30 | > 30 | > 30 | > 30 | > 30 | > 30 | –
10 | CC(=O)[C@@]1(O)CC[C@H]2[C@@H]3C[C@H](C)C4=CC(=O)C=C[C@]4(C)[C@@]3(F)[C@@H](O)C[C@@]21C [FLUOROMETHOLONE] | > 10 | > 30 | > 10 | > 10 | > 10 | > 10 | > 30 | > 10 | > 10 | –
11 | Nc1cc(N2CCCCC2)nc(N)[n+]1[O-] [MINOXIDIL] | > 10 | > 30 | > 10 | > 30 | > 30 | > 10 | > 30 | > 10 | > 30 | –
12 | CCN(C(C)=O)c1cccc(-c2ccnc3c(C#N)cnn23)c1 [ZALEPLON] | > 10 | > 30 | > 10 | > 30 | > 30 | > 10 | > 30 | > 10 | > 30 | –
13 | CC(=O)Oc1cccc2c1C(=O)c1c(OC(C)=O)cc(C(=O)O)cc1C2=O [DIACEREIN] | – | > 30 | – | 0.9 | 28 | 12 | 8.8 | > 30 | > 30 | > 30
14 | COc1ccc2c3c1O[C@H]1C(=O)CC[C@H]4[C@@H](C2)N(C)CC[C@]314 [HYDROCODONE] | > 10 | > 30 | > 10 | > 30 | > 30 | > 10 | 9.5 | – | > 30 | > 30
15 | CCCCOC(=O)C(=O)Nc1cccc(-c2nnn[nH]2)c1 [TAZANOLAST] | > 30 | – | > 30 | > 30 | > 30 | > 30 | > 30 | > 30 | > 30 | > 30
16 | CCCCOC(=O)c1ccc(N)cc1 [BUTAMBEN] | > 30 | > 30 | > 30 | 0.6 | > 30 | > 30 | 26 | > 30 | > 30 | –
17 | Nc1ccc(S(=O)(=O)Nc2ncccn2)cc1 [SULFADIAZINE] | > 10 | > 30 | > 10 | > 10 | > 10 | > 10 | > 30 | > 10 | > 10 | –
18 | CC1=C(CC(=O)O)c2cc(F)ccc2/C1=C\c1ccc([S+](C)[O-])cc1 (stereo unspecified) | > 10 | > 30 | > 10 | > 30 | > 30 | > 10 | > 30 | > 10 | > 30 | –
19 | CN(Cc1ccc(C(C)(C)C)cc1)Cc1cccc2ccccc12 [BUTENAFINE] | > 10 | > 30 | > 10 | > 10 | > 10 | > 10 | > 30 | > 10 | > 10 | –
